From US4943629A, “Antidiabetic alpha-substituted phosphonates” (American Cyanamid Company, priority 1988, dated 1990)

Columns and labels:
[1] = biological target: T1, purified rat liver 6-phosphofructo-1-kinase (Rattus norvegicus, UniProt P30835); assay: stimulation of 6-phosphofructo-1-kinase (PFK), aldolase-coupled spectrophotometric assay; format: biochemical; conditions: pH 7.3, 30° C., 1 mM ATP, 0.2 mM fructose-6-phosphate, read-out: PFK ED50
T1 construct: purified rat liver 6-phosphofructo-1-kinase; from tissue; host or cells: rat liver
T1 sequence (P30835 2-780 limits assumed): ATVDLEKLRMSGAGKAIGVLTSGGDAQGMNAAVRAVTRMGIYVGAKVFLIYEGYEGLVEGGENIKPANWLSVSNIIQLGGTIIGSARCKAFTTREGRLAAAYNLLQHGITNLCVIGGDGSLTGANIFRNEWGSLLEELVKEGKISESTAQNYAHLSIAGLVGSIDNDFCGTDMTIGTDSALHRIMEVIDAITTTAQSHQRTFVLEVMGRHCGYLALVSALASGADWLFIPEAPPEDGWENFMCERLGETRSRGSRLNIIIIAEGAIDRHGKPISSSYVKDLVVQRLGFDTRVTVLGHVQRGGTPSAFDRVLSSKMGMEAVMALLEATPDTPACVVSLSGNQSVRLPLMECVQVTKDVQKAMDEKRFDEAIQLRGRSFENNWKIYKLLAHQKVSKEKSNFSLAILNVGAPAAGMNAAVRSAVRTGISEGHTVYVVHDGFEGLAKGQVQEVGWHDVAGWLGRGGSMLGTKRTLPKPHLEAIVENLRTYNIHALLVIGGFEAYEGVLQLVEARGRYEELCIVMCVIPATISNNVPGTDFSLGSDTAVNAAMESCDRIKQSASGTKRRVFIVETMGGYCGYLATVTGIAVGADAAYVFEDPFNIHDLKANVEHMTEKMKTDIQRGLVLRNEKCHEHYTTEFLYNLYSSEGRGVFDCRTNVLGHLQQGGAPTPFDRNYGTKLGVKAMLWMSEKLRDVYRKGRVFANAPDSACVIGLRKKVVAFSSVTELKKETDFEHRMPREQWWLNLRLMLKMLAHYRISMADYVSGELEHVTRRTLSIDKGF
Description: (§1) The novel compounds of this invention were tested for their ability to stimulate the enzyme 6-phosphofructo-1-kinase ("PFK") and for their ability to inhibit the enzyme fructose-1,6-bisphosphatase ("FBP") using the procedures described below.
Effects on the activity of PFK were determined using an aldolase-coupled, spectrophotometric assay. The assay mixture contained: 50 mM N-tris(hydroxymethyl) methyl-2-aminoethanesulfonic acid, hydrochloride ("TES-HCl", pH 7.3); 1 mM ethylenediaminetetraacetic acid ("EDTA"); 6 mM magnesium chloride; 2.5 mM dithiothreitol; 0.165 mM nicotinamide adenine dinucleotide ("NADH"); 1 mM adenosine triphosphate ("ATP"); 0.04U aldolase; 0.4U triose phosphate isomerase; 1.5U alpha-glycerolphosphate dehydrogenase; 0.lU of purified rat liver 6-phosphofructo-1-kinase; and various concentrations of the test compound, all in a final volume of 1 ml. The mixture was preincubated for 3 minutes at 30° C. and then the reaction was initiated with 0.2 mM fructose-6-phosphate. The rate of decrease in absorbance at 340 nm was measured at 30° C. with a recording spectrophotometer.

[2] = biological target: T2, purified rat liver FBP (fructose-1,6-bisphosphatase) (Rattus norvegicus, UniProt P19112); assay: inhibition of fructose-1,6-bisphosphatase (FBP), spectrophotometric assay; format: biochemical; conditions: pH 7.4, 30° C., 0.02 mM fructose-1,6-bis-phosphate
T2 construct: purified rat liver FBP; from tissue; host or cells: rat liver
T2 sequence (P19112 2-363 limits assumed): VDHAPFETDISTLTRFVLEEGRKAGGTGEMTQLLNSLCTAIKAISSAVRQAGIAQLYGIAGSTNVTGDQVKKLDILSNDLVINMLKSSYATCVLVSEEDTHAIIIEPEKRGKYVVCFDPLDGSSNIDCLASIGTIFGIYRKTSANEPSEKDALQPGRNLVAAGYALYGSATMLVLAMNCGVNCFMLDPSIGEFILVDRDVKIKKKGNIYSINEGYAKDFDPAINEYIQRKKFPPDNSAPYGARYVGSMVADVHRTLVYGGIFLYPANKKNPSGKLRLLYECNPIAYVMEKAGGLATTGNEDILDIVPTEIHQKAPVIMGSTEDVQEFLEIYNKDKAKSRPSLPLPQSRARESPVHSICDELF
Description: as §1
Effects on the activity of FBP were determined using a spectrophotometric assay. The assay mixture contained: 100 mM tris(hydroxymethyl)aminomethane, hydrochloride ("TRIS-HCl", pH 7.4); 2.5 mM beta-mercaptoethanol; 2 mM magnesium chloride; 0.05 mM EDTA; 0.2 mM nicotinamide adenine dinucleotide phosphate ("NADP"); 10 U phosphoglucose isomerase; 5 U glucose-6-phosphate dehydrogenase; 0.02U of purified rat liver FBP; and various concentrations of the test compound, all in a final volume of 1 ml. The mixture was preincubated for 3 minutes at 30° C. and then the reaction was initiated with 0.02 mM fructose-1,6-bis-phosphate. The rate of increase in absorbance at 340 nm was measured at 30° C. with a recording spectrophotometer

SMILES | EC50 [1] [µM] | IC50 [2] [µM]
O=P(O)(O)OC[C@H]1O[C@@](CO)(C(F)P(=O)(O)O)[C@@H](O)[C@@H]1O (single isomer, unassigned) [2,5-Anhydro-1-deoxy-1-fluoro-2-(hydroxymethyl)-1-phosphono-D-glucitol, 6-(dihydrogen phosphate)] | 0.7 | 110
O=P(O)(O)OC[C@H]1O[C@H](C(F)(F)P(=O)(O)O)[C@@H](O)[C@@H]1O [2,5-Anhydro-1-deoxy-1,1-difluoro-1-phosphono-D-mannitol, 6-(dihydrogen phosphate)] | 14 | 226
O=P(O)(O)OC[C@H]1O[C@H](C(F)P(=O)(O)O)[C@@H](O)[C@@H]1O (stereo partly drawn) [2,5-Anhydro-1-deoxy-1-fluoro-1-phosphono-D-mannitol, 6-(dihydrogen phosphate)] | 22 | 114
O=P(O)(O)OC[C@H]1O[C@H](CC(F)(F)P(=O)(O)O)[C@@H](O)[C@@H]1O [3,6-Anhydro-1,2-dideoxy-1,1-difluoro-1-phosphono-D-manno-heptitol, 7-(dihydrogen phosphate)] | 3 | 27
O=P(O)(O)OC[C@H]1O[C@H](CC(F)P(=O)(O)O)[C@@H](O)[C@@H]1O (stereo partly drawn) [[1R(and 1S)]-3,6-Anhydro-1,2-dideoxy-1-fluoro-1-phosphono-D-manno-heptitol, 7-(dihydrogen phosphate)] | 1.3 | 61

The remaining compounds from weak to strong by EC50 [1], led by results:

EC50 [1] [µM] | IC50 [2] [µM] | SMILES
20 | 393 | O=P(O)(O)OC[C@H]1O[C@](CO)(C(O)P(=O)(O)O)[C@@H](O)[C@@H]1O (stereo partly drawn) [2,5-Anhydro-2-C-(hydroxyphosphonomethyl)-D-glucitol, 6-(dihydrogen phosphate)]
13 | 44 | O=P(O)(O)OC[C@H]1O[C@H](C(O)P(=O)(O)O)[C@@H](O)[C@@H]1O (stereo partly drawn) [[1R(and/or 1S)]-2,5-Anhydro-1-C-phosphono-D-mannitol, 6-(dihydrogen phosphate)]
10 | 54 | O=P(O)(O)OC[C@H]1OC(C(F)P(=O)(O)O)[C@@H](O)[C@@H]1O (mixture of isomers) [2,5-Anhydro-1-deoxy-1-fluoro-1-phosphono-D-glucitol and D-mannitol, 6-(dihydrogen phosphate) mixture (70:30)]
1.3 | 378 | O=P(O)(O)OC[C@H]1O[C@](CO)(C(F)P(=O)(O)O)[C@@H](O)[C@@H]1O (stereo partly drawn) [2,5-Anhydro-2-C-(fluorophosphonomethyl)-D-glucitol, 6-(dihydrogen phosphate)]
1 | 62 | O=P(O)(O)OC[C@H]1O[C@H](CC(O)P(=O)(O)O)[C@@H](O)[C@@H]1O (stereo partly drawn) [[1R(and/or 1S)]-3,6-Anhydro-2-deoxy-1-phosphono-D-manno-heptitol, 7-(dihydrogen phosphate)]
